The results in this text go back to ChEMBL document CHEMBL1649331, “Determination of CEM-101 activity tested against clinical isolates of Neisseria meningitidis from a worldwide collection” (2010).

For orientation: MIC means the lowest concentration that inhibits growth of the organism. A higher MIC goes with a need for much substance. One may read the MIC50 as an inhibitory concentration at the 50% level, which refers to growth in some studies and to a panel of isolates in others. The term MIC90 denotes an inhibitory concentration at the 90% level, which refers to growth in some studies and to a panel of isolates in others. Read a low MIC90 as greater potency.

In brackets after ≈: the same amount, converted by molar mass. Bounds are passed on as bounds.

What all share (assay type): functional
Assay [1] deals with Neisseria meningitidis. The assay is described as follows: Antimicrobial activity against Neisseria meningitidis by broth microdilution method. (In general: Broth dilution looks for growth in wells or tubes with falling amounts of substance.)
The test system of assay [2] is Neisseria meningitidis. Nature of the assay: Antimicrobial activity against Neisseria meningitidis assessed as susceptible isolate by broth microdilution method.
Assay [3] deals with Neisseria meningitidis. The assay is described as follows: Antimicrobial activity against Neisseria meningitidis assessed as resistant isolate by broth microdilution method.

For the molecule `CN(C)c1ccc(O)c2c1C[C@H]1C[C@H]3[C@H](N(C)C)C(O)=C(C(N)=O)C(=O)[C@@]3(O)C(O)=C1C2=O` [MINOCYCLINE], in the assay on Neisseria meningitidis [1], the minimal inhibitory concentration (MIC) is ≤ 0.015 µg/mL, the MIC50 came out at 0.12 µg/mL (≈ 0.262 µM) and the MIC90 came out at 0.25 µg/mL (≈ 0.546 µM). Besides, in the assay on Neisseria meningitidis [2], the Activity is reported as 100%. In addition, the Activity in the assay on Neisseria meningitidis [3] is 0%.

Take `CC[C@H]1OC(=O)[C@H](C)C(=O)[C@H](C)[C@@H](O[C@@H]2O[C@H](C)C[C@H](N(C)C)[C@H]2O)[C@](C)(OC)C[C@@H](C)C(=O)[C@H](C)[C@H]2N(CCCCn3cnc(-c4cccnc4)c3)C(=O)O[C@]12C` [TELITHROMYCIN]: in the assay on Neisseria meningitidis [1], the minimal inhibitory concentration (MIC) is ≤ 0.015 µg/mL, the MIC50 is ≤ 0.015 µg/mL and the MIC90 came to 0.03 µg/mL (≈ 0.0369 µM).

With `CC1(C)S[C@@H]2[C@H](NC(=O)Cc3ccccc3)C(=O)N2[C@H]1C(=O)O` [PENICILLIN G], in the assay on Neisseria meningitidis [1], the MIC is ≤ 0.015 µg/mL, the MIC50 was found to be 0.03 µg/mL (≈ 0.0897 µM) and the MIC90 came out at 0.12 µg/mL (≈ 0.359 µM). Besides, the Activity in the assay on Neisseria meningitidis [2] amounted to 84.5%. Also, in the assay on Neisseria meningitidis [3], the Activity was 0%.

Turning to `CO/N=C(\C(=O)N[C@@H]1C(=O)N2C(C(=O)O)=C(CSc3nc(=O)c(O)nn3C)CS[C@H]12)c1csc(N)n1` [CEFTRIAXONE], in the assay on Neisseria meningitidis [1], the MIC50 is ≤ 0.015 µg/mL and the MIC90 was ≤ 0.015 µg/mL. Besides, the Activity with Neisseria meningitidis [2] came out at 100%.

On to `CC[C@H]1OC(=O)[C@H](C)[C@@H](O[C@H]2C[C@@](C)(OC)[C@@H](O)[C@H](C)O2)[C@H](C)[C@@H](O[C@@H]2O[C@H](C)C[C@H](N(C)C)[C@H]2O)[C@](C)(O)C[C@@H](C)C(=O)[C@H](C)[C@@H](O)[C@]1(C)O` [ERYTHROMYCIN], for which, in the assay on Neisseria meningitidis [1], the MIC is ≤ 0.03 µg/mL, the MIC50 amounted to 0.12 µg/mL (≈ 0.164 µM) and the MIC90 was 0.25 µg/mL (≈ 0.341 µM).

In the assay on Neisseria meningitidis [1], `CO[C@H]1/C=C/O[C@@]2(C)Oc3c(C)c(O)c4c(O)c(c(/C=N/N5CCN(C)CC5)c(O)c4c3C2=O)NC(=O)/C(C)=C\C=C\[C@H](C)[C@H](O)[C@@H](C)[C@@H](O)[C@@H](C)[C@H](OC(C)=O)[C@@H]1C` [RIFAMPIN] registered an MIC50 of 0.015 µg/mL (≈ 0.0182 µM) and an MIC90 of 0.03 µg/mL (≈ 0.0365 µM). The Activity in the assay on Neisseria meningitidis [2] amounted to 100%. In the assay with Neisseria meningitidis [3], the Activity came out at 0%.

`O=C(O)c1cn(C2CC2)c2cc(N3CCNCC3)c(F)cc2c1=O` [CIPROFLOXACIN]: the Activity was 97.1% in the assay on Neisseria meningitidis [2] and 1.9% in the assay with Neisseria meningitidis [3].

In the case of `CC[C@H]1OC(=O)[C@H](C)[C@@H](O[C@H]2C[C@@](C)(OC)[C@@H](O)[C@H](C)O2)[C@H](C)[C@@H](O[C@@H]2O[C@H](C)C[C@H](N(C)C)[C@H]2O)[C@](C)(O)C[C@@H](C)CN(C)[C@H](C)[C@@H](O)[C@]1(C)O` [AZITHROMYCIN], in the assay with Neisseria meningitidis [1], the MIC was ≤ 0.015 µg/mL, the MIC50 was 0.06 µg/mL (≈ 0.0801 µM) and the MIC90 was 0.12 µg/mL (≈ 0.16 µM). In the assay with Neisseria meningitidis [2], the Activity was 100%.

`CC[C@H]1OC(=O)[C@@](C)(F)C(=O)[C@H](C)[C@@H](O[C@@H]2O[C@H](C)C[C@H](N(C)C)[C@H]2O)[C@](C)(OC)C[C@@H](C)C(=O)[C@H](C)[C@H]2N(CCCCn3cc(-c4cccc(N)c4)nn3)C(=O)O[C@]12C` [SOLITHROMYCIN]: in the assay with Neisseria meningitidis [1], the MIC is ≤ 0.015 µg/mL, the MIC50 is ≤ 0.015 µg/mL and the MIC90 is ≤ 0.015 µg/mL.

With `C[C@H]1COc2c(N3CCN(C)CC3)c(F)cc3c(=O)c(C(=O)O)cn1c23.C[C@H]1COc2c(N3CCN(C)CC3)c(F)cc3c(=O)c(C(=O)O)cn1c23.O` [LEVOFLOXACIN], in the assay with Neisseria meningitidis [1], the MIC was ≤ 0.008 µg/mL, the MIC50 was ≤ 0.008 µg/mL and the MIC90 was ≤ 0.008 µg/mL. Further, the Activity with Neisseria meningitidis [2] is 97.1%. For the same molecule, in the assay with Neisseria meningitidis [3], the Activity was 1.9%.

Regarding `CC[C@H]1OC(=O)[C@H](C)[C@@H](O[C@H]2C[C@@](C)(OC)[C@@H](O)[C@H](C)O2)[C@H](C)[C@@H](O[C@@H]2O[C@H](C)C[C@H](N(C)C)[C@H]2O)[C@](C)(OC)C[C@@H](C)C(=O)[C@H](C)[C@@H](O)[C@]1(C)O` [CLARITHROMYCIN], in the assay with Neisseria meningitidis [1], the minimal inhibitory concentration (MIC) is ≤ 0.015 µg/mL, the MIC50 was found to be 0.03 µg/mL (≈ 0.0401 µM) and the MIC90 turned out to be 0.12 µg/mL (≈ 0.16 µM).
